The record followed here is article PMC10507807, “De novo design of a stapled peptide targeting SARS-CoV-2 spike protein receptor-binding domain” (RSC Medicinal Chemistry, 2023).

Starred links: 1 amine or outer side, 2 acyl side, 3 side chain; linkers in the order of their positions; H or OH if unused. Positions of bridges follow the written chain, without caps; N, C: chain ends. Non-standard residues stand in square brackets, D forms with d. Residues, ends and D or L forms follow the SMILES beside them. X1 = C[C@@](CC=[*:3])(N[*:1])C(=O)[*:2]

Series [1] relates to SARS-CoV-2 spike protein RBD. Format: binding.
In series [2] the test system is Vero E6 cells. Conditions: MTT, 0.05–50 μM pep39, 48 h.

Turning to `CSCC[C@@H]1NC(=O)[C@H](CC(N)=O)NC(=O)[C@@H]2CC(=O)NCCCC[C@H](NC(=O)[C@H](Cc3c[nH]c4ccccc34)NC(=O)[C@@H](NC(=O)[C@H](CCCCN)NC(=O)[C@H](Cc3ccc(O)cc3)NC(=O)[C@H](CC(C)C)NC(=O)[C@H](Cc3c[nH]c4ccccc34)NC(=O)[C@H](CCC(=O)O)NC(=O)[C@@H](NC(=O)CNC(C)=O)[C@@H](C)O)C(C)C)C(=O)N[C@@H](C)C(=O)N[C@@H](Cc3ccccc3)C(=O)N[C@@](C)(C/C=C/C[C@@](C)(C(=O)O)NC1=O)C(=O)N2` [pep39] (Ac-GTEWLYKVWKAF[X1]DNM[X1]-OH; lactam 10-14; staple (E) 13-17), in series [1], the “confirmation of binding to spike protein RBD” value is given as “able to confirm the binding of pep39 on the surface of the spike protein RBD”. In series [1] (pH 7.4), this compound displayed a maximum micro-cantilever deflection of 33.27 nm and a minimum micro-cantilever deflection of 8.46 nm. Further, the “concentration at which significant inhibition of cell growth was observed” value in series [2] (P < 0.05 vs PBS) was no less than 50 µM. The “concentration above which cell growth is dose dependently inhibited” value in series [2] (vs PBS) is “higher than 0.5 μM”.
